Literature values in patent US20130316017A1, “Oral Composition for the Treatment of Acne” (priority 2012, published 2013).

What was measured:
[1] = short-term (0-3 hours)
[2] = system: sebum; details: in vivo

Row | short-term availability of curcumin and any other compound in the composition [1] | Compound | reduction of sebum [2]
1 | improve | O=C(/C=C/C=C/c1ccc2c(c1)OCO2)N1CCCCC1 [Piperine] | –
2 | – | CC(C)(CO)[C@@H](O)C(=O)NCCC(=O)O [vitamin B5] | reduce sebum
